# Target: T1, Cbl-b (Homo sapiens, UniProt Q13191)
# T1 construct: biotin (biotinylated protein)
# Assay: Cbl-b probe displacement HTRF binding assay
# Conditions: 0.4 nM Cbl-b, 150 nM BODIPY probe
# Summary of the method: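 Binding IC50 from four-parameter fit of HTRF signal loss, normalised to DMSO (0%) and no-protein (100%) wells. Biotinylated Cbl-b 0.4 nM was preincubated 60 min with compound (20-point 1:2 dilution) before 15 min with 150 nM BODIPY probe; Tb-streptavidin detection.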
# T1 sequence (Q13191 whole entry, species assumed): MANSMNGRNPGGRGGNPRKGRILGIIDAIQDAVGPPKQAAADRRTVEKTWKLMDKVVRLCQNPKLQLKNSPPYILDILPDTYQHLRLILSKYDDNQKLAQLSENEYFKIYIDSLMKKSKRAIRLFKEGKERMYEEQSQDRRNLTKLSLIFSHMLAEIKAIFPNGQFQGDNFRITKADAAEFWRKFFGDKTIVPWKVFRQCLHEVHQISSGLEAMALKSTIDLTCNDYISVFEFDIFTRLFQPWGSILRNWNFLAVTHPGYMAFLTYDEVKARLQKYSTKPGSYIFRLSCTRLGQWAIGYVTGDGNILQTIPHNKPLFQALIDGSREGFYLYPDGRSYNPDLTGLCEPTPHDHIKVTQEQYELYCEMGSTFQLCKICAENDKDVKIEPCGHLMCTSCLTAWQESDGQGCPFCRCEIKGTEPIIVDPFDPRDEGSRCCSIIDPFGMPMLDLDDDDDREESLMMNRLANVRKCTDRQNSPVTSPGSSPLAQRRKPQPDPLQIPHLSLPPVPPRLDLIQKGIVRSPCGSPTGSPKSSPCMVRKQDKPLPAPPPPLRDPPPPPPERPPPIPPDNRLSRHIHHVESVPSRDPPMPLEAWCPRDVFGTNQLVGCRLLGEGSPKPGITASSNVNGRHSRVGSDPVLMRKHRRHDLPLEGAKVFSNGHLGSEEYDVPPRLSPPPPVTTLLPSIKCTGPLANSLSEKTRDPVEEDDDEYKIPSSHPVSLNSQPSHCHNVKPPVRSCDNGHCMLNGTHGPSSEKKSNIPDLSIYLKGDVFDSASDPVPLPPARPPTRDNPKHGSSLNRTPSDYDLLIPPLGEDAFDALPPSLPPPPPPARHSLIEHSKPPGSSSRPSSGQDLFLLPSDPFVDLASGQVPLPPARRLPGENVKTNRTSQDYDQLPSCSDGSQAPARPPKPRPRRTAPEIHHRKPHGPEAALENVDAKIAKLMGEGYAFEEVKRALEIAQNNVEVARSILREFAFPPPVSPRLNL
row,Compound,IC50
1,CO[C@@H](C)CNCc1cc(C(=O)Nc2cc(-c3ccc(Cl)cc3C(=O)N3CC[C@@H]3C)cc(C3CC3)n2)c(=O)n(C2CC2)c1 [Example 314],< 100 nM
2,COc1ccc(-c2cc(NC(=O)c3cc(CNCC(C)C)cn(C)c3=O)nc(C3CC3)c2)c(C(=O)N2CC(F)C2)c1 [Example 315],< 100 nM
3,CCNc1cc(-c2ccc(OC(F)F)cc2C(=O)N2CC(F)C2)cc(NC(=O)c2cc(CNC[C@@H]3CCCO3)cn(C)c2=O)n1 [Example 316],< 100 nM
4,COc1ccc(-c2cc(NC(=O)c3cc(CNCC(C)C)cn(C)c3=O)nc(OC(C)C)c2)c(C(=O)N2CC(F)C2)c1 [Example 317],< 100 nM
5,COc1ccc(-c2cc(NC(=O)c3cc(CN[C@@H](CO)C4CCC4)cn(C4CC4)c3=O)nc(OC(C)C)c2)c(C(=O)N2CC(F)C2)c1 [Example 318],< 100 nM
6,COc1ccc(-c2cc(NC(=O)c3cc(CNC[C@@H]4CCCO4)cn(C)c3=O)nc(C3CC3)c2)c(C(=O)N2CC(F)C2)c1 [Example 319],< 100 nM
7,Cc1ccc(-c2cc(NC(=O)c3cc(CNC[C@@H]4CCCO4)cn(C)c3=O)nc(OC(C)C)c2)c(C(=O)N2CC(F)C2)c1 [Example 320],< 100 nM
8,CO[C@@H](C)CNCc1cc(C(=O)Nc2cc(-c3ccc(OC(F)F)cc3C(=O)N3CC(F)(F)C3)cc(C3CC3)n2)c(=O)n(C2CC2)c1 [Example 321],< 100 nM
9,CC(C)CNCc1cc(C(=O)Nc2cc(-c3ccc(OC(F)F)cc3C(=O)N3CC(F)(F)C3)cc(C3CC3)n2)c(=O)n(C2CC2)c1 [Example 322],< 100 nM
10,C[C@H](N[C@H](C)c1cc(C(=O)Nc2cc(-c3ccc(C#N)cc3C(=O)N3CC(F)(F)C3)cc(C3CC3)n2)c(=O)n(C2CC2)c1)C1CC1 [Example 323],< 100 nM
11,CO[C@@H](C)CNC(C)c1cc(C(=O)Nc2cc(-c3ccc(C#N)cc3C(=O)N3CC(F)(F)C3)cc(C3CC3)n2)c(=O)n(C2CC2)c1 (some centres unmarked) [Example 324],< 100 nM
12,O=C(Nc1cc(-c2ccc(OC(F)F)cc2C(=O)N2CC(F)(F)C2)cc(C2CC2)n1)c1cc(CNC[C@@H]2CCCO2)cn(C2CC2)c1=O [Example 325],< 100 nM
13,CC(C)CNC(C)c1cc(C(=O)Nc2cc(-c3ccc(C#N)cc3C(=O)N3CC(F)(F)C3)cc(C3CC3)n2)c(=O)n(C2CC2)c1 (centres unmarked) [Example 326],< 100 nM
14,C[C@H](NCc1cc(C(=O)Nc2cc(-c3ccc(OC(F)F)cc3C(=O)N3CC(F)(F)C3)cc(C3CC3)n2)c(=O)n(C2CC2)c1)C1CCC1 [Example 327],< 100 nM
15,C[C@H](N[C@@H](C)C1CC1)c1cc(C(=O)Nc2cc(-c3ccc(C#N)cc3C(=O)N3CC(F)(F)C3)cc(C3CC3)n2)c(=O)n(C2CC2)c1 [Example 328],< 100 nM
16,CC(N[C@@H](C)C1CCC1)c1cc(C(=O)Nc2cc(-c3ccc(C#N)cc3C(=O)N3CC(F)(F)C3)cc(C3CC3)n2)c(=O)n(C2CC2)c1 (some centres unmarked) [Example 329],< 100 nM
17,CCNc1cc(-c2ccc(OC(F)F)cc2C(=O)N2CC(F)(F)C2)cc(NC(=O)c2cc(CNC[C@H](C)OC)cn(C3CC3)c2=O)n1 [Example 330],< 100 nM
18,CCOc1cc(-c2ccc(OC(F)F)cc2C(=O)N2CC(F)(F)C2)cc(NC(=O)c2cc(CNC[C@H](C)OC)cn(C3CC3)c2=O)n1 [Example 331],< 100 nM
19,CO[C@@H](C)CNCc1cc(C(=O)Nc2cc(-c3ccc(OC(F)F)cc3C(=O)N3CC(F)(F)C3)cc(NC(C)C)n2)c(=O)n(C2CC2)c1 [Example 332],< 100 nM

row,Compound,IC50
1,CC(NCC1CC1)c1cc(C(=O)Nc2cc(-c3ccc(C#N)cc3C(=O)N3CC(F)(F)C3)cc(C3CC3)n2)c(=O)n(C2CC2)c1 (centres unmarked) [Example 333],< 100 nM
2,COc1cc(-c2ccc(OC(F)F)cc2C(=O)N2CC(F)(F)C2)cc(NC(=O)c2cc(CNC[C@H](C)OC)cn(C3CC3)c2=O)n1 [Example 334],< 100 nM
3,COC[C@H](C)NC(C)c1cc(C(=O)Nc2cc(-c3ccc(C#N)cc3C(=O)N3CC(F)(F)C3)cc(C3CC3)n2)c(=O)n(C2CC2)c1 (some centres unmarked) [Example 335],< 100 nM
4,CC(C)[C@H](C)N[C@@H](C)c1cc(C(=O)Nc2cc(-c3ccc(C#N)cc3C(=O)N3CC(F)(F)C3)cc(C3CC3)n2)c(=O)n(C2CC2)c1 [Example 336],< 100 nM
5,COCCNCc1cc(C(=O)Nc2cc(-c3ccc(OC(F)F)cc3C(=O)N3CC(F)(F)C3)cc(C3CC3)n2)c(=O)n(C2CC2)c1 [Example 337],< 100 nM
6,CO[C@@H](C)CNCc1cc(C(=O)Nc2cc(-c3ccc(OC(F)F)cc3C(=O)N3CC(F)(F)C3)cc(C)n2)c(=O)n(C2CC2)c1 [Example 338],< 100 nM
7,CO[C@@H](C)CNCc1cc(C(=O)Nc2cc(-c3ccc(C#N)cc3C(=O)N3CC(F)(F)C3)cc(OC(C)C)n2)c(=O)n(C2CC2)c1 [Example 339],< 100 nM
8,CCOc1cc(-c2c(F)cc(C#N)cc2C(=O)N2CC(F)(F)C2)cc(NC(=O)c2cc(CNC[C@H](C)OC)cn(C3CC3)c2=O)n1 [Example 340],< 100 nM
9,N#Cc1ccc(-c2cc(NC(=O)c3cc(CNC[C@@H]4CCCO4)cn(C4CC4)c3=O)nc(OC(F)F)c2)c(C(=O)N2CC(F)(F)C2)c1 [Example 341],< 100 nM
10,COCCNCc1cc(C(=O)Nc2cc(-c3ccc(C#N)cc3C(=O)N3CC(F)(F)C3)cc(NC(C)C)n2)c(=O)n(C2CC2)c1 [Example 342],< 100 nM
11,COc1ccc(-c2cc(NC(=O)c3cc(CN[C@@H](C)C4CCC4)cn(C4CC4)c3=O)nc(OCC(F)F)c2)c(C(=O)N2CC(F)(F)C2)c1 [Example 343],< 100 nM
12,N#Cc1ccc(-c2cc(NC(=O)c3cc(CNC[C@@H]4CCCO4)cn(C4CC4)c3=O)nc(OCF)c2)c(C(=O)N2CC(F)(F)C2)c1 [Example 344],< 100 nM
13,CCOc1cc(-c2ccc(C#N)cc2C(=O)N2CC(F)(F)C2)cc(NC(=O)c2cc(CNCCOC)cn(C3CC3)c2=O)n1 [Example 345],< 100 nM
14,CCNc1cc(-c2ccc(C#N)cc2C(=O)N2CC(F)(F)C2)cc(NC(=O)c2cc(CNCCOC)cn(C3CC3)c2=O)n1 [Example 346],< 100 nM
15,Cc1ccc(-c2cc(NC(=O)c3cc(CN[C@@H](C)C4CCC4)cn(C4CC4)c3=O)nc(OCC(F)F)c2)c(C(=O)N2CC(F)(F)C2)c1 [Example 347],< 100 nM
16,COc1ccc(-c2cc(NC(=O)c3cc(CNC[C@H](C)OC)cn(C4CC4)c3=O)nc(OCC(F)F)c2)c(C(=O)N2CC(F)(F)C2)c1 [Example 348],< 100 nM
17,CO[C@@H](C)CNCc1cc(C(=O)Nc2cc(-c3ccc(C)cc3C(=O)N3CC(F)(F)C3)cc(OCC(F)F)n2)c(=O)n(C2CC2)c1 [Example 349],< 100 nM
18,Cn1cc(CNC[C@@H]2CCCO2)cc(C(=O)Nc2cc(-c3ccc(C#N)cc3C(=O)N3CC(F)(F)C3)cc(OCF)n2)c1=O [Example 350],< 100 nM
19,C[C@H](NCc1cc(C(=O)Nc2cc(-c3ccc(C#N)cc3C(=O)N3CC(F)(F)C3)cc(C3CC3)n2)c(=O)n(C2CC2)c1)C1CCC1 [Example 351],< 100 nM

row,Compound,IC50
1,N#Cc1ccc(-c2cc(NC(=O)c3cc(CNC[C@@H]4CCCO4)cn(C4CC4)c3=O)nc(C3CC3)c2)c(C(=O)N2CC(F)(F)C2)c1 [Example 352],< 100 nM
2,CO[C@@H](C)CNCc1cc(C(=O)Nc2cc(-c3ccc(Cl)cc3C(=O)N3CC(F)(F)C3)cc(C3CC3)n2)c(=O)n(C2CC2)c1 [Example 353],< 100 nM
3,C[C@H](NCc1cc(C(=O)Nc2cc(-c3ccc(C#N)cc3C(=O)N3CC(F)(F)C3)cc(C3CC3)n2)c(=O)n(C)c1)[C@@H]1CCCO1 [Example 354],< 100 nM
4,N#Cc1ccc(-c2cc(NC(=O)c3cc(CNCC4CCC4)cn(C4CC4)c3=O)nc(C3CC3)c2)c(C(=O)N2CC(F)(F)C2)c1 [Example 355],< 100 nM
5,CC(C)CNCc1cc(C(=O)Nc2cc(-c3ccc(C#N)cc3C(=O)N3CC(F)(F)C3)cc(C3CC3)n2)c(=O)n(C2CC2)c1 [Example 356],< 100 nM
6,CO[C@@H](C)CNCc1cc(C(=O)Nc2cc(-c3ccc(F)cc3C(=O)N3CC(F)(F)C3)cc(NC(C)C)n2)c(=O)n(C2CC2)c1 [Example 357],< 100 nM
7,C[C@H](NCc1cc(C(=O)Nc2cc(-c3ccc(C#N)cc3C(=O)N3CC(F)(F)C3)cc(C3CC3)n2)c(=O)n(C2CC2)c1)C1CCCC1 [Example 358],< 100 nM
8,CO[C@@H](C)[C@H](C)NCc1cc(C(=O)Nc2cc(-c3ccc(Cl)cc3C(=O)N3CC(F)(F)C3)cc(C3CC3)n2)c(=O)n(C2CC2)c1 [Example 359],< 100 nM
9,CO[C@@H](C)CNCc1cc(C(=O)Nc2cc(-c3ccc(F)cc3C(=O)N3CC(F)(F)C3)cc(C3CC3)n2)c(=O)n(C2CC2)c1 [Example 360],< 100 nM
10,COC[C@H](C)NCc1cc(C(=O)Nc2cc(-c3ccc(C#N)cc3C(=O)N3CC(F)(F)C3)cc(C3CC3)n2)c(=O)n(C2CC2)c1 [Example 361],< 100 nM
11,CC(C)[C@H](C)NCc1cc(C(=O)Nc2cc(-c3ccc(C#N)cc3C(=O)N3CC(F)(F)C3)cc(C3CC3)n2)c(=O)n(C2CC2)c1 [Example 362],< 100 nM
12,CO[C@H]1CCC[C@@H]1NCc1cc(C(=O)Nc2cc(-c3ccc(C#N)cc3C(=O)N3CC(F)(F)C3)cc(C3CC3)n2)c(=O)n(C2CC2)c1 [Example 363],< 100 nM
13,CO[C@@H](C)CNCc1cc(C(=O)Nc2cc(-c3ccc(C#N)cc3C(=O)N3CCC3)cc(C3CC3)n2)c(=O)n(C2CC2)c1 [Example 364],< 100 nM
14,C[C@H](NCc1cc(C(=O)Nc2cc(-c3ccc(C#N)cc3C(=O)N3CC(F)(F)C3)cc(C3CC3)n2)c(=O)n(C2CC2)c1)C1CC1 [Example 365],< 100 nM
15,N#Cc1ccc(-c2cc(NC(=O)c3cc(CNC[C@@H]4CCCCO4)cn(C4CC4)c3=O)nc(C3CC3)c2)c(C(=O)N2CC(F)(F)C2)c1 [Example 366],< 100 nM
16,CO[C@@H](C)CNCc1cc(C(=O)Nc2cc(-c3c(F)cc(F)cc3C(=O)N3CC(F)(F)C3)cc(C3CC3)n2)c(=O)n(C2CC2)c1 [Example 367],< 100 nM
17,CO[C@@H](C)CNCc1cc(C(=O)Nc2cc(-c3c(F)cc(F)cc3C(=O)N3CC(F)(F)C3)cc(OC(C)C)n2)c(=O)n(C2CC2)c1 [Example 368],< 100 nM
18,N#Cc1ccc(-c2cc(NC(=O)c3cc(CNC[C@@H]4COCCO4)cn(C4CC4)c3=O)nc(C3CC3)c2)c(C(=O)N2CC(F)(F)C2)c1 [Example 369],< 100 nM
